SMILES strings stand for the structures. Counter-ions that a name gives are not always drawn.

As usually defined, the melting point is the temperature of the solid-liquid transition.

`Cc1cc(N2CCCN(Cc3ccc4c(c3)OCO4)C2=O)ccc1Oc1ccc(NC(=O)c2ccc(C(F)(F)F)cc2)cn1` [compound 1183] returned a melting point of 165 to 166 °C.

Molecule `CCN(CC(=O)N1CCN(Cc2ccc3c(c2)OCO3)CC1)c1ccc(Oc2ccc(NC(=O)c3ccc(C(F)(F)F)cc3)cn2)cc1` [compound 774] returned a melting point of 178 to 180 °C.

As for `Cc1cc(N(C)CC(=O)N2CCN(Cc3ccccc3)CC2)ccc1Oc1ccc(NC(=O)c2ccc(Cl)c(Cl)c2)cn1` [compound 1516], the melting point fell in the range of 111 to 113 °C.

Consider `O=C(Nc1ccc(Oc2ccc(N3CCN(C(=O)CN4CCOCC4)CC3)cc2)cc1)c1ccc(Cl)c(Cl)c1` [compound 2559], for which the melting point was 177 to 178 °C.

Turning to `O=C(Nc1ccc(Oc2ccc(N3CCN(C(=O)c4ccc5c(c4)OCO5)CC3)cc2)cc1)c1ccc(Cl)c(Cl)c1` [compound 2053], the melting point is 116 to 118 °C.

`O=C(Nc1ccc(Oc2ccc(C(=O)N3CCOCC3)cc2)c(F)c1)c1ccc(Cl)c(Cl)c1` [Example No. 11] gave a melting point of 203 to 204 °C.

`Cc1cc(N(C)CC(=O)N2CCN(C(=O)c3ccc4c(c3)OCO4)CC2)ccc1Oc1ccc(NC(=O)c2ccc(Cl)c(Cl)c2)cn1` [compound 2054] came in with a melting point of 133 to 135 °C.

Molecule `O=C(Nc1ccc(Oc2ccc(N3CCN(S(=O)(=O)c4ccccc4)CC3)cc2)cc1)c1ccc(Cl)c(Cl)c1` [compound 2031, N-{4-[4-(4-benzenesulfonylpiperazin-1-yl)phenoxy]phenyl}-3,4-dichlorobenzamide] returned a melting point of 191 to 192 °C.

As to `Cc1cc(N2CCCN(Cc3ccc4c(c3)OCO4)C2=O)ccc1Oc1ccc(NC(=O)c2ccc(Cl)c(Cl)c2)cn1` [compound 1184], the melting point lay within 122 to 124 °C.

`CCN(CC(=O)N1CCN(Cc2ccc3c(c2)OCO3)CC1)c1ccc(Oc2ccc(NC(=O)c3ccc(Cl)c(Cl)c3)cn2)c(F)c1` [compound 728] registered a melting point of 149 to 151 °C.

Turning to `CC(=O)N(c1ccc(CCC(=O)N2CCN(Cc3ccc4c(c3)OCO4)CC2)cc1)c1ccc(NC(=O)c2ccc(Cl)c(Cl)c2)cn1` [compound 2099, N-[6-(Acetyl{4-[3-oxo-3-(4-piperonylpiperazin-1-yl)propyl]phenyl}amino)pyridin-3-yl]-3,4-dichlorobenzamide], the melting point lay in the range of 150 to 165 °C.

With `O=C(Nc1ccc(Oc2ccc(N3CCN(Cc4ccccc4)C3=O)cc2)nc1)c1ccc(Cl)c(Cl)c1` [compound 1182], the melting point lay within 186 to 187 °C.

Turning to `O=C(Nc1ccc(Oc2ccc(N3CCN(C(=O)COc4ccccc4)CC3)cc2)cc1)c1ccc(Cl)c(Cl)c1` [compound 2052], the melting point was 171 to 173 °C.

Take `CC(=O)N(CC(=O)N1CCN(Cc2ccccc2)CC1)c1ccc(Oc2ccc(NC(=O)c3ccc(C(F)(F)F)cc3)cn2)cc1` [compound 771]: the melting point is 161 to 162 °C.

`O=C(CN1CCOCC1)c1ccc(Oc2ccc(NC(=O)c3ccc(Cl)c(Cl)c3)cc2F)cc1` [compound 2563] gave a melting point of 177 to 178 °C.

Molecule `CN(CC(=O)N1CCN(Cc2ccc3c(c2)OCO3)CC1)c1ccc(Oc2ccc(NS(=O)(=O)c3ccc(Cl)c(Cl)c3)cn2)c(F)c1` [compound 1615, 3,4-dichloro-N-[6-(2-fluoro-4-{methyl[2-oxo-2-(4-piperonylpiperazin-1-yl)ethyl]amino}phenoxy)pyridin-3-yl]benzenesulfonamide] registered a melting point of 185.6 to 187 °C.

`CC(=O)N(CC(=O)N1CCN(Cc2ccc3c(c2)OCO3)CC1)c1ccc(Oc2ccc(NC(=O)c3ccc(Cl)c(Cl)c3)cn2)c(C)c1` [compound 725]: the melting point is 216 to 217 °C.

`CC(C)(C)OC(=O)N1CCN(C(=O)CCc2ccc(Oc3ccc(NC(=O)c4ccc(Cl)c(Cl)c4)cc3F)cc2)CC1` [compound 464] gave a melting point of 155 to 157 °C.

In the case of `CCOC(=O)c1ccc(N2CCCN(c3ccc(Oc4ccc(NC(=O)c5ccc(C(F)(F)F)cc5)cn4)c(C)c3)C2=O)cc1` [compound 1188], the melting point was 160 to 161 °C.

The molecule `CCN(CC(=O)N1CCN(Cc2ccc3c(c2)OCO3)CC1)c1ccc(Oc2ccc(NS(=O)(=O)c3ccc(Cl)c(Cl)c3)cn2)c(F)c1` [compound 2695, N-[6-(4-{[2-(4-piperonylpiperazin-1-yl)-2-oxoethyl]ethylamino}-2-fluorophenoxy)pyridin-3-yl]-3,4-dichlorobenzenesulfonamide] had a melting point of 163 to 166 °C.

Regarding `CCN(CC(=O)N1CCN(Cc2ccoc2)CC1)c1ccc(Oc2ccc(NC(=O)c3ccc(C(F)(F)F)cc3)cn2)c(OC)c1` [compound 784], the melting point fell in the range of 174 to 176 °C.

In turn, `Br.CN(CC(=O)N1CCN(Cc2ccc3c(c2)OCO3)CC1)c1cc(F)c(Oc2ccc(C(=O)Nc3ccc(C(F)(F)F)cc3)cn2)cc1F` [compound 1037, 6-(4-{[2-(4-Piperonylpiperazin-1-yl)-2-oxoethyl]methylamino}-2,5-difluorophenoxy)-N-(4-trifluoromethylphenyl)nicotinamide hydrobromide] displayed a melting point of 224.5 to 226 °C.

Regarding `CC(=O)N(CC(=O)N1CCN(Cc2ccc3c(c2)OCO3)CC1)c1ccc(Oc2ccc(NC(=O)c3ccc(Cl)c(Cl)c3)cn2)c(F)c1` [compound 730], the melting point lay in the range of 233 to 235 °C.

Consider `Cc1cc(N(C)CC(=O)N2CCN(Cc3ccc4c(c3)OCO4)CC2)ccc1Oc1ccc(NC(=O)c2ccc(Cl)c(Cl)c2)cn1` (as salt: hydrochloride) [compound 1512], for which the melting point is 183 to 185 °C (dec.).

`Cc1cc(N2CCN(Cc3ccc4c(c3)OCO4)C2=O)ccc1Oc1ccc(NC(=O)c2ccc(C(F)(F)F)cc2)cn1` [compound 1504, N-{6-[2-methyl-4-(2-oxo-3-piperonylimidazolidin-1-yl)phenoxy]pyridin-3-yl}-4-trifluoromethylbenzamide] yielded a melting point of 188 to 189 °C.

Molecule `CCN(CC(=O)N1CCN(Cc2ccccc2)CC1)c1ccc(Oc2ccc(NC(=O)c3ccc(C(F)(F)F)cc3)cn2)c(C)c1` (as salt: maleate) [compound 1513] showed a melting point of 165 to 167 °C.

In the case of `O=C(C1CCN(c2ccc(Oc3ccc(NS(=O)(=O)c4ccc(Cl)c(Cl)c4)cn3)cc2)CC1)N1CCN(Cc2ccccc2)CC1` [compound 2710, N-(6-{4-[4-(4-benzylpiperazine-1-carbonyl)piperidin-1-yl]phenoxy}pyridin-3-yl)-3,4-dichlorobenzenesulfonamide], the melting point lay within 185 to 189 °C.

For the molecule `O=C(Nc1ccc(Oc2ccc(C(O)CN3CCOCC3)cc2)c(F)c1)c1ccc(Cl)c(Cl)c1` (stereo not drawn) [compound 2715, 3,4-dichloro-N-{3-fluoro-4-[4-(1-hydroxy-2-morpholine-4-ylethyl)phenoxy]phenyl}benzamide], the melting point fell in the range of 169 to 170 °C.

With `CCN(CC(=O)N1CCN(Cc2ccc3c(c2)OCO3)CC1)c1ccc(Oc2ccc(NS(=O)(=O)c3ccc(C(F)(F)F)cc3)cn2)c(F)c1` [compound 2712, N-[6-(4-{[2-(4-piperonylpiperazin-1-yl)-2-oxoethyl]ethylamino}-2-fluorophenoxy)pyridin-3-yl]-4-trifluoromethylbenzenesulfonamide], the melting point was 177.8 to 180.1 °C.

Consider `CN(CC(=O)N1CCN(Cc2ccc3c(c2)OCO3)CC1)c1ccc(Oc2ccc(NC(=O)c3ccc(C(F)(F)F)cc3)cn2)c(F)c1` [compound 776], for which the melting point is 220 to 221 °C.

The values above are taken from US8188277B2, “Aromatic compounds for suppressing the generation of collagen” (Otsuka Pharmaceutical Co., Ltd., priority 2004, dated 2012).
